Experimental data from US11571484B2, “Compositions that target tumor-associated macrophages and methods of use therefor” (Sanford Burnham Prebys Medical Discovery Institute, priority 2017, dated 2023).
Values joined by “and” are separate entries in the source; they are usually repeats but may differ in a detail not shown here. Identical values can stand only once. Ends that are not written are not given here. FAM = 5(6)-carboxyfluorescein; Ahx = NCCCCCC(=O)O

What was measured:
MEMs in MKN45-P tumors = conditions: 30 nmoles i.v., 2 h
Procedure: Thirty nmoles of FAM-UNO or FAM-control peptide were injected intravenously into mice and allowed to circulate for 2 h. Mice were then sacrificed and tumor and tissues were analyzed by immunofluorescence using rabbit anti-FAM (green) and rat anti-CD206 (red) antibodies, and counterstained with DAPI. […] The metastases were induced by i.v. inoculation of B16F10 melanoma cells. […] Blue: DAPI. Representative fields from multiple sections (n≥3) prepared from at least 3 tumors are shown. Scale bar: 50 μm. Images shown are representative fields from multiple sections (≥3) prepared from at least 3 tumors (n≥3 mice). The graphs show mean+SEM of FAM signal quantified as described in Materials and Methods.
Tumor models were induced according to protocols approved by the Estonian Ministry of Agriculture, Committee of Animal Experimentation (permit #48). For the 4T1 breast model, 8-week old female Balb/c mice were injected in the mammary fat pad with 10^6 cells dispersed in 50 μL of PBS. For homing studies, mice were used 10 days later, when the tumor had reached ˜150 mm^3. For MCF-7 breast model, 8-week old female nude mice were implanted with an estrogen pellet, and 1 week later inoculated with 5×10^6 MCF-7 cells in 100 μL of cold Matrigel (BD Biosciences, CA, USA). Mice were used for homing studies three weeks later (tumor volume˜150 mm^3). For the metastatic gastric carcinoma, 10^6 MKN45-P cells in PBS were injected intraperitoneally in 8-week old female nude mice. Mice were used for homing studies two weeks later. For the metastatic melanoma model, 2×10^5 B16F10 cells were injected intravenously in 100 μL of PBS in C57 BL6 mice. The mice were used for homing studies 10 days after. […]
For free peptide homing studies, mice were injected intravenously with 30 nmoles of FAM-peptides in 100 μL of PBS. […] FAM was detected using Rabbit anti-FITC (Invitrogen, CA, USA. Catalog # A-889) at a dilution of 1/100 and using Alexa Fluor-546 anti-rabbit antibody (Invitrogen, Ca, USA. Catalog # A-11035) at a dilution of 1/200.

[1] = system: peritoneal cells (CCR2+ macrophages) of 4T1 tumor-bearing mice; test: Flow cytometry of FAM-peptide binding to peritoneal cells from 4T1 tumor mice; assay type: cell-based, mouse
Procedure: A, Change in fluorescence anisotropy of FAM-UNO (dotted line) and FAM-UNO in DTT (solid line) while incubating with mouse recombinant CD206. B, Change in fluorescence anisotropy of FAM-CSPGAK with mouse recombinant CD206 (solid line) or with CD163 (dotted line) and of FAM-CPMTDNE (control) with CD206 (dashed line). C, FAM-UNO binds selectively to CCR2^+ macrophages collected from the peritoneal cavity of 4T1 tumor-bearing mice, as 94.3% of FAM^+ cells are CCR2^+ cells. The analysis was done gating for the FAM^+ population (left panel). In these 4T1 tumor bearing mice, 58% of peritoneal cells are macrophages, i.e. CCR2^+ cells (right panel). D, FAM-UNO binding to peritoneal cells is inhibited by preincubating with 10 µg/mL of anti-CD206, whereas the preincubation with anti CD206 antibody had no effect on FAM-LyP-1 binding. In panels A and D are shown representative graphs from three independent experiments. In panels c and d are shown results from three independent experiments (n=3 mice) and bars of panel D represents mean+SEM.
Peritoneal cells were extracted from Balb/c mice 2 weeks after inoculation of 10^6 cells orthotopically). Mice were anesthetized and intraperitoneally injected with 5 mL of PBS+1% BSA, the abdomen was massaged to detach macrophages and the peritoneal fluid was collected. This procedure typically yielded 5-9×10^6 cells. Cells were concentrated to 1 mL in the same peritoneal fluid. For FAM-peptide incubation, the peptides were incubated for 30 minutes at 4° C. For antibody incubation the cells were incubated with antibody for 1 h at 4° C. A647 Rat anti-CCR2 (Biolegend, CA, USA. Catalog number 150603) was incubated for 1 h at 4° C. at a dilution of 1/200. FAM-peptides were incubated at a concentration of 0.5 μg/mL, and Rat anti-CD206 (Bio-Rad, CA, USA. Product code MCA2235GA) was incubated at a concentration of 10 μg/mL. Binding of FAM-peptides was monitored with 488 nm channel and CCR2 labeling was assessed in the 647 nm channel using A647 Anti-CCR2 (Biolegend, CA, USA). After incubation of FAM-Peptides or antibodies, the cells were washed 3 times at 4° C. with PBS-Tby centrifugation at 250 g for 6 minutes, followed by flow cytometry analysis (Accuri, BD Biosciences, CA, USA).

FAM-UNO: FAM-labeled UNO peptide CSPGAKVRC (SEQ ID NO: 1); 5(6)-carboxyfluorescein with 6-aminohexanoic acid spacer at the N-terminus ({FAM-Ahx}-CSPGAKVRC; cysteine pairing not given here)
accumulation in MEMs / CD206+ cells (MEMs in MKN45-P tumors): accumulated in MEMs
cells gated for CCR2+ that were positive for FAM-UNO binding ([1]; 0.5 μg/mL peptide, 30 min, 4 °C): 94%
reduction of binding to peritoneal cells by pre-incubation with anti-CD206 antibody ([1]; anti-CD206 10 μg/mL): 25%
FAM+ cells that are CCR2+ cells (macrophages) ([1]; gated for the FAM+ population, 0.5 μg/mL peptide, 30 min, 4 °C): 94.3% and 95%
